Laboratory results taken from the supplement of paper PMC13380429.

Legend:
Conditions in all cases: 72 h
[1] = test system: Calu-3; test: drug sensitivity score (DSS) for viability; higher = more toxic; extreme values may be limits of the assay
[2] = test system: Vero E6; test: as above
[3] = test system: U2OS; test: as above
[4] = test system: HepG2; test: as above
[5] = test system: Caco-2; test: as above
[6] = test system: Calu-3; test: cell viability relative to DMSO; higher = less toxic
[7] = test system: Vero E6; test: as above
[8] = test system: U2OS; test: as above
[9] = test system: HepG2; test: as above
[10] = test system: Caco-2; test: as above
[11] = test system: Calu-3; test: relative viability EC50 (midpoint between 100% and the lowest measured viability); higher = less toxic
[12] = test system: Vero E6; test: as above
[13] = test system: U2OS; test: as above
[14] = test system: HepG2; test: as above
[15] = test system: Caco-2; test: as above

| Compound | drug sensitivity score [1] | drug sensitivity score [2] | drug sensitivity score [3] | drug sensitivity score [4] | drug sensitivity score [5] | cell viability ([6]; 1 nM) [%] | cell viability ([6]; 10 nM) [%] | cell viability ([6]; 100 nM) [%] | cell viability ([6]; 1000 nM) [%] | cell viability ([6]; 10000 nM) [%] | cell viability ([7]; 1 nM) [%] | cell viability ([7]; 10 nM) [%] | cell viability ([7]; 100 nM) [%] | cell viability ([7]; 1000 nM) [%] | cell viability ([7]; 10000 nM) [%] | cell viability ([8]; 1 nM) [%] | cell viability ([8]; 10 nM) [%] | cell viability ([8]; 100 nM) [%] | cell viability ([8]; 1000 nM) [%] | cell viability ([8]; 10000 nM) [%] | cell viability ([9]; 1 nM) [%] | cell viability ([9]; 10 nM) [%] | cell viability ([9]; 100 nM) [%] | cell viability ([9]; 1000 nM) [%] | cell viability ([9]; 10000 nM) [%] | cell viability ([10]; 1 nM) [%] | cell viability ([10]; 10 nM) [%] | cell viability ([10]; 100 nM) [%] | cell viability ([10]; 1000 nM) [%] | cell viability ([10]; 10000 nM) [%] | relative viability EC50 [11] [µM] | relative viability EC50 [12] [µM] | relative viability EC50 [13] [µM] | relative viability EC50 [14] [µM] | relative viability EC50 [15] [µM] |
| --- | --- | --- | --- | --- | --- | --- | --- | --- | --- | --- | --- | --- | --- | --- | --- | --- | --- | --- | --- | --- | --- | --- | --- | --- | --- | --- | --- | --- | --- | --- | --- | --- | --- | --- | --- |
| Cn1cc(-c2ccc3nnc(Sc4ccc5ncccc5c4)n3n2)cn1 [SGX523] | 0 | 0 | 0 | 0 | 0 | 89 | 97.2 | 102 | 96.5 | 100 | 94.8 | 101 | 94.4 | 98 | 107 | 99 | 98.6 | 101 | 93.4 | 103 | 96.2 | 95.2 | 92.5 | 97.2 | 103 | 92.5 | 98.6 | 103 | 107 | 100 | > 10 | > 10 | > 10 | > 10 | > 10 |
| COc1cc(C[C@H](C)[C@H](C)Cc2ccc3c(c2)OCO3)ccc1O [macelignan] | 0 | 0 | 0 | 3.3 | 0 | 99.3 | 102 | 102 | 101 | 103 | 100 | 106 | 98.9 | 95.4 | 101 | 98.5 | 99 | 94 | 101 | 91.5 | 98.4 | 103 | 92.1 | 81.1 | 86.3 | 87.3 | 102 | 93.9 | 96.6 | 87.3 | > 10 | > 10 | > 10 | > 10 | > 10 |
| O=[N+]([O-])c1cc(O)c(O)c([N+](=O)[O-])c1 [OR-486] | 0 | 0 | 0 | 0 | 0 | 102 | 100 | 95.2 | 94 | 99.5 | 97.6 | 99 | 102 | 100 | 97 | 98.2 | 102 | 96.5 | 103 | 98 | 101 | 98.3 | 98.3 | 93.6 | 96.7 | 93.2 | 103 | 103 | 97 | 94.3 | > 10 | > 10 | > 10 | > 10 | > 10 |
| CCCCCCCCCCC(=O)O[C@H]1CC[C@H]2[C@@H]3CCC4=CC(=O)CC[C@]4(C)[C@H]3CC[C@]12C [Testosterone (undecanoate)] | 0 | 0 | 0 | 0 | 0 | 103 | 94.7 | 96.5 | 94.4 | 100 | 98.5 | 97.2 | 99.2 | 95.5 | 94.9 | 99.8 | 94.4 | 102 | 99.4 | 97.7 | 95.6 | 106 | 92.4 | 99.4 | 96.9 | 87.3 | 92.9 | 104 | 96.7 | 91.5 | > 10 | > 10 | > 10 | > 10 | > 10 |
| CC[C@@]1(O)C(=O)OCc2c1cc1n(c2=O)Cc2cc3cc(O)ccc3nc2-1 [10-hydroxycamptothecin] | 20.5 | 9.1 | 12.7 | 31.8 | 12.2 | 95.8 | 97.5 | 48.7 | 31.4 | 20.2 | 97.4 | 97.5 | 92.9 | 59.9 | 22.5 | 102 | 106 | 90.1 | 41.6 | 1.7 | 102 | 47.8 | 31.2 | 5.3 | 2.1 | 94.2 | 107 | 89.3 | 43 | 13.2 | 0.0695 | 0.9 | 0.715 | 0.0158 | 0.573 |
| CCC(=O)[C@@]1(C)[C@H](C)C[C@H]2[C@@H]3CCC4=CC(=O)C=C[C@]4(C)[C@H]3[C@@H](O)C[C@@]21C [rimexolone] | 0 | 0 | 0 | 0 | 0 | 98.4 | 99 | 89.4 | 102 | 96.4 | 93.8 | 95.2 | 90 | 94.7 | 100 | 99.8 | 98.9 | 100 | 95.5 | 97 | 86.3 | 102 | 95.4 | 112 | 92.8 | 85.5 | 90.5 | 101 | 88.8 | 107 | > 10 | > 10 | > 10 | > 10 | > 10 |
| O=C(c1ccc(C(=O)N2CCC(N3CCCC3)CC2)c(Nc2ccccc2)c1)N1CCC(N2CCCC2)CC1 [UNC1215] | 0 | 0 | 0 | 0 | 0 | 105 | 111 | 106 | 93.4 | 101 | 94 | 95.9 | 101 | 99.6 | 99.9 | 104 | 102 | 100 | 97.9 | 105 | 98.6 | 99.2 | 96.7 | 98 | 103 | 108 | 97.7 | 100 | 110 | 94.1 | > 10 | > 10 | > 10 | > 10 | > 10 |
| NS(=O)(=O)c1cc2c(cc1C(F)(F)F)NCNS2(=O)=O [hydroflumethiazide] | 0 | 0 | 0 | 0 | 0 | 97.1 | 101 | 96.7 | 103 | 105 | 105 | 92.2 | 98.5 | 97.2 | 107 | 102 | 101 | 95.3 | 101 | 98.2 | 104 | 103 | 114 | 99.3 | 96.8 | 99.5 | 99.1 | 89.7 | 98.8 | 92.2 | > 10 | > 10 | > 10 | > 10 | > 10 |
| CC1CCC(NC(=O)N(CCCl)N=O)CC1 (stereo not given) [semustine] | 0 | 0 | 0 | 0 | 0 | 98.5 | 110 | 87 | 97.2 | 99.4 | 106 | 99.6 | 105 | 104 | 99.8 | 98.8 | 96.6 | 99.6 | 99.5 | 99.9 | 96.3 | 108 | 92.3 | 107 | 91.8 | 99.1 | 103 | 104 | 91.1 | 91.7 | > 10 | > 10 | > 10 | > 10 | > 10 |
| Cc1ccc(-c2ccc(F)cc2COc2ccc(CCC(=O)O)cc2)cc1 [TUG-891] | 0 | 0 | 0 | 0 | 0 | 93.6 | 97.7 | 105 | 96.6 | 105 | 101 | 102 | 100 | 97.9 | 99 | 97.8 | 101 | 94.2 | 93.6 | 99.2 | 109 | 96.7 | 100 | 117 | 110 | 93.8 | 91.7 | 87.9 | 98.5 | 92.4 | > 10 | > 10 | > 10 | > 10 | > 10 |
| N#C/C(=C\c1cccn1S(=O)(=O)c1cccc([N+](=O)[O-])c1)S(=O)(=O)c1ccc(F)cc1 [AMZ30] | 0 | 0 | 0 | 0 | 0.4 | 90.5 | 98 | 104 | 105 | 108 | 98.6 | 97.6 | 96.4 | 94.9 | 93.3 | 102 | 101 | 96.8 | 96.2 | 94.1 | 95.8 | 105 | 119 | 93.7 | 103 | 104 | 99 | 95.3 | 96.3 | 84.8 | > 10 | > 10 | > 10 | > 10 | > 10 |
| N[C@H](C(=O)O)c1ccc(O)cc1 [oxfenicine] | 0 | 0 | 0 | 0 | 0 | 103 | 95.1 | 99.2 | 103 | 103 | 99.7 | 96.3 | 101 | 91.3 | 99.1 | 99.7 | 103 | 98.6 | 102 | 95.7 | 84.1 | 96.3 | 96.9 | 103 | 100 | 94.2 | 90.6 | 88.6 | 88.6 | 96.3 | > 10 | > 10 | > 10 | > 10 | > 10 |
| CC(C)c1ccc(CC(=O)N2CCC[C@@H](c3cccc(OC(C)(C)C(=O)O)c3)C2)cc1 | 0 | 0 | 0 | 0 | 0 | 87.3 | 94.5 | 104 | 108 | 98.6 | 106 | 103 | 101 | 97.4 | 96.8 | 103 | 99.5 | 99.7 | 99.6 | 103 | 98.3 | 106 | 104 | 106 | 108 | 92.6 | 100 | 93.2 | 97.6 | 96.2 | > 10 | > 10 | > 10 | > 10 | > 10 |
| COc1ccc2c(c1)C(C(=O)N(Cc1ccc(N(C)C)cc1)c1ccc(C(C)C)cc1)CCC2 (stereo not given) | 0 | 0 | 0 | 0 | 1.5 | 90.3 | 98.9 | 96.9 | 88 | 107 | 101 | 103 | 99.3 | 103 | 105 | 102 | 100 | 102 | 98.2 | 100 | 99.8 | 109 | 98.5 | 109 | 102 | 105 | 96.3 | 105 | 95.9 | 75.5 | > 10 | > 10 | > 10 | > 10 | > 10 |
